Experimental data: PubChem BioAssay (NCI)
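Five concentrations, 48 hours, 96-well plates. TGI marks complete inhibition of growth.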

test system: SR leukemia; assay: growth of human tumour cells (NCI), 48 h

SMILES	TGI [µM]
Fc1ccc(C(OCCN2CCC3CCC(C2)N3C/C=C/c2ccco2)c2ccc(F)cc2)cc1 (centres undefined)	42.7
O=c1c2nc3ccccc3c(=O)n2ncn1-c1ccccc1Cl	> 100

test system: SW-620 colon; assay: growth of human tumour cells (NCI), 48 h

SMILES	TGI [µM]
Cc1nn(-c2ccccc2)c(C)c1/C=N/N=C1\SCC(=O)N1c1ccccc1	> 100
OCC(O)C(Cl)CCl (centres undefined)	> 100
O=C1NCc2ccccc2S(=O)(=O)n2cccc21	> 100
O=C(/C=C/c1ccccc1)NNC(=O)c1c(Cl)c(Cl)c(Cl)c(Cl)c1-c1nc2ccccc2[nH]1	> 100
Fc1ccc(C(OCCN2CCC3CCC(C2)N3C/C=C/c2ccco2)c2ccc(F)cc2)cc1 (centres undefined)	21.6
O=c1c2nc3ccccc3c(=O)n2ncn1-c1ccccc1Cl	> 100
CC(=O)OCC1OC(OC2CC3C(C)(C)C(OC(C)=O)CC[C@]3(C)C3CCC45CC4(CCC5[C@@H](C)C[C@H](O)C(O)C(C)(C)O)[C@]23C)C(O)C(O)C1O (some centres undefined)	> 10

test system: T-47D breast; assay: growth of human tumour cells (NCI), 48 h

SMILES	TGI [µM]
Cc1nn(-c2ccccc2)c(C)c1/C=N/N=C1\SCC(=O)N1c1ccccc1	> 100
OCC(O)C(Cl)CCl (centres undefined)	> 100
O=C1NCc2ccccc2S(=O)(=O)n2cccc21	> 100
O=C(/C=C/c1ccccc1)NNC(=O)c1c(Cl)c(Cl)c(Cl)c(Cl)c1-c1nc2ccccc2[nH]1	60.6
Fc1ccc(C(OCCN2CCC3CCC(C2)N3C/C=C/c2ccco2)c2ccc(F)cc2)cc1 (centres undefined)	20.8
O=c1c2nc3ccccc3c(=O)n2ncn1-c1ccccc1Cl	> 100
CC(=O)OCC1OC(OC2CC3C(C)(C)C(OC(C)=O)CC[C@]3(C)C3CCC45CC4(CCC5[C@@H](C)C[C@H](O)C(O)C(C)(C)O)[C@]23C)C(O)C(O)C1O (some centres undefined)	> 10

test system: TK-10 renal; assay: growth of human tumour cells (NCI), 48 h

SMILES	TGI [µM]
Cc1nn(-c2ccccc2)c(C)c1/C=N/N=C1\SCC(=O)N1c1ccccc1	93.4
OCC(O)C(Cl)CCl (centres undefined)	> 100
O=C1NCc2ccccc2S(=O)(=O)n2cccc21	> 100
Fc1ccc(C(OCCN2CCC3CCC(C2)N3C/C=C/c2ccco2)c2ccc(F)cc2)cc1 (centres undefined)	21.5
O=c1c2nc3ccccc3c(=O)n2ncn1-c1ccccc1Cl	> 100
CC(=O)OCC1OC(OC2CC3C(C)(C)C(OC(C)=O)CC[C@]3(C)C3CCC45CC4(CCC5[C@@H](C)C[C@H](O)C(O)C(C)(C)O)[C@]23C)C(O)C(O)C1O (some centres undefined)	> 10

test system: U251 CNS; assay: growth of human tumour cells (NCI), 48 h

SMILES	TGI [µM]
Cc1nn(-c2ccccc2)c(C)c1/C=N/N=C1\SCC(=O)N1c1ccccc1	69.3
OCC(O)C(Cl)CCl (centres undefined)	> 100
O=C1NCc2ccccc2S(=O)(=O)n2cccc21	> 100
Fc1ccc(C(OCCN2CCC3CCC(C2)N3C/C=C/c2ccco2)c2ccc(F)cc2)cc1 (centres undefined)	21.1
O=c1c2nc3ccccc3c(=O)n2ncn1-c1ccccc1Cl	> 100
CC(=O)OCC1OC(OC2CC3C(C)(C)C(OC(C)=O)CC[C@]3(C)C3CCC45CC4(CCC5[C@@H](C)C[C@H](O)C(O)C(C)(C)O)[C@]23C)C(O)C(O)C1O (some centres undefined)	> 10

test system: UACC-257 melanoma; assay: growth of human tumour cells (NCI), 48 h

SMILES	TGI [µM]
Cc1nn(-c2ccccc2)c(C)c1/C=N/N=C1\SCC(=O)N1c1ccccc1	88.2
OCC(O)C(Cl)CCl (centres undefined)	> 100
O=C1NCc2ccccc2S(=O)(=O)n2cccc21	> 100
O=C(/C=C/c1ccccc1)NNC(=O)c1c(Cl)c(Cl)c(Cl)c(Cl)c1-c1nc2ccccc2[nH]1	99.1
Fc1ccc(C(OCCN2CCC3CCC(C2)N3C/C=C/c2ccco2)c2ccc(F)cc2)cc1 (centres undefined)	17.4
O=c1c2nc3ccccc3c(=O)n2ncn1-c1ccccc1Cl	> 100
CC(=O)OCC1OC(OC2CC3C(C)(C)C(OC(C)=O)CC[C@]3(C)C3CCC45CC4(CCC5[C@@H](C)C[C@H](O)C(O)C(C)(C)O)[C@]23C)C(O)C(O)C1O (some centres undefined)	> 10

test system: UACC-62 melanoma; assay: growth of human tumour cells (NCI), 48 h

SMILES	TGI [µM]
Cc1nn(-c2ccccc2)c(C)c1/C=N/N=C1\SCC(=O)N1c1ccccc1	68.3
OCC(O)C(Cl)CCl (centres undefined)	> 100
O=C1NCc2ccccc2S(=O)(=O)n2cccc21	> 100
O=C(/C=C/c1ccccc1)NNC(=O)c1c(Cl)c(Cl)c(Cl)c(Cl)c1-c1nc2ccccc2[nH]1	> 100
Fc1ccc(C(OCCN2CCC3CCC(C2)N3C/C=C/c2ccco2)c2ccc(F)cc2)cc1 (centres undefined)	26.7
O=c1c2nc3ccccc3c(=O)n2ncn1-c1ccccc1Cl	> 100
CC(=O)OCC1OC(OC2CC3C(C)(C)C(OC(C)=O)CC[C@]3(C)C3CCC45CC4(CCC5[C@@H](C)C[C@H](O)C(O)C(C)(C)O)[C@]23C)C(O)C(O)C1O (some centres undefined)	> 10

test system: UO-31 renal; assay: growth of human tumour cells (NCI), 48 h

SMILES	TGI [µM]
Cc1nn(-c2ccccc2)c(C)c1/C=N/N=C1\SCC(=O)N1c1ccccc1	51.1
OCC(O)C(Cl)CCl (centres undefined)	> 100
O=C1NCc2ccccc2S(=O)(=O)n2cccc21	> 100
O=C(/C=C/c1ccccc1)NNC(=O)c1c(Cl)c(Cl)c(Cl)c(Cl)c1-c1nc2ccccc2[nH]1	55.6
Fc1ccc(C(OCCN2CCC3CCC(C2)N3C/C=C/c2ccco2)c2ccc(F)cc2)cc1 (centres undefined)	28.8
O=c1c2nc3ccccc3c(=O)n2ncn1-c1ccccc1Cl	> 100
CC(=O)OCC1OC(OC2CC3C(C)(C)C(OC(C)=O)CC[C@]3(C)C3CCC45CC4(CCC5[C@@H](C)C[C@H](O)C(O)C(C)(C)O)[C@]23C)C(O)C(O)C1O (some centres undefined)	> 10
